# Data from ChEMBL document CHEMBL4622872, “Discovery of DS-1971a, a Potent, Selective NaV1.7 Inhibitor” (J Med Chem, 2020).
# Legend:
# [1] = Distribution coefficient, log D of the compound in 1-octanol and PBS buffer at pH 7.4 measured after 30 mins by LC-MS analysis; type: physicochemical; conditions: 1-octanol/PBS buffer
# [2] = Aqueous thermodynamic solubility of the compound at pH 6.8 measured after 4 hrs by UV-HPLC analysis; type: physicochemical; conditions: buffer
# [3] = Stability of the compound in mouse liver microsomes assessed as parent compound remaining measured after 0.5 hrs; type: ADME, Microsome; conditions: microsomes, 0.5 h
# [4] = Toxicity in Crl:CD1(ICR) mouse assessed as effect on central nervous system by measuring NOEL administered as single dose measured up to 24 hrs by Irwin's test; conditions: in vivo
# [5] = Stability of the compound in rat liver microsomes assessed as parent compound remaining measured after 0.5 hrs; type: ADME, Microsome; conditions: read-out: Stability
# [6] = Stability of the compound in dog liver microsomes assessed as parent compound remaining measured after 0.5 hrs; type: ADME, Canis lupus familiaris, Microsome; conditions: read-out: Stability
# [7] = Stability of the compound in monkey liver microsomes assessed as parent compound remaining measured after 0.5 hrs; type: ADME, Macaca mulatta, Microsome; conditions: rhesus monkey, read-out: Stability
# [8] = Stability of the compound in human liver microsomes assessed as parent compound remaining measured after 0.5 hrs; type: ADME, Microsome; conditions: read-out: Stability
# [9] = Cmax in cynomolgus monkey at 1 mg/kg, iv or po by LC-MS/MS analysis; type: ADME, organism-based, Macaca fascicularis; conditions: in vivo
# [10] = Tmax in cynomolgus monkey at 1 mg/kg, iv or po by LC-MS/MS analysis; type: ADME, organism-based, Macaca fascicularis; conditions: in vivo
# [11] = Half life in cynomolgus monkey at 1 mg/kg, iv or po by LC-MS/MS analysis; type: ADME, organism-based, Macaca fascicularis; conditions: in vivo
# [12] = AUC (infinity) in cynomolgus monkey at 1 mg/kg, iv or po by LC-MS/MS analysis; type: ADME, organism-based, Macaca fascicularis; conditions: in vivo
# [13] = Oral bioavailability in cynomolgus monkey at 1 mg/kg by LC-MS/MS analysis; type: ADME, organism-based, Macaca fascicularis; conditions: in vivo
# [14] = Clearance in cynomolgus monkey at 1 mg/kg, iv by LC-MS/MS analysis; type: ADME, organism-based, Macaca fascicularis; conditions: in vivo
# [15] = Volume of distribution at steady state in cynomolgus monkey at 1 mg/kg, iv by LC-MS/MS analysis; type: ADME, organism-based, Macaca fascicularis; conditions: in vivo, read-out: Vdss
# [16] = Cmax in Beagle dog at 1 mg/kg, iv or po by LC-MS/MS analysis; type: ADME, organism-based, Canis lupus familiaris; conditions: in vivo
# [17] = Tmax in Beagle dog at 1 mg/kg, iv or po by LC-MS/MS analysis; type: ADME, organism-based, Canis lupus familiaris; conditions: in vivo
# [18] = Half life in Beagle dog at 1 mg/kg, iv or po by LC-MS/MS analysis; type: ADME, organism-based, Canis lupus familiaris; conditions: in vivo
# [19] = AUC (infinity) in Beagle dog at 1 mg/kg, iv or po by LC-MS/MS analysis; type: ADME, organism-based, Canis lupus familiaris; conditions: in vivo
# [20] = Oral bioavailability in Beagle dog at 1 mg/kg by LC-MS/MS analysis; type: ADME, organism-based, Canis lupus familiaris; conditions: in vivo
# [21] = Clearance in Beagle dog at 1 mg/kg, iv by LC-MS/MS analysis; type: ADME, organism-based, Canis lupus familiaris; conditions: in vivo
# [22] = Volume of distribution at steady state in Beagle dog at 1 mg/kg, iv by LC-MS/MS analysis; type: ADME, organism-based, Canis lupus familiaris; conditions: in vivo, read-out: Vdss
# [23] = Cmax in Sprague-Dawley rat at 1 mg/kg, iv or po by LC-MS/MS analysis; type: ADME, organism-based; conditions: in vivo
# [24] = Tmax in Sprague-Dawley rat at 1 mg/kg, iv or po by LC-MS/MS analysis; type: ADME, organism-based; conditions: in vivo
# [25] = Half life in Sprague-Dawley rat at 1 mg/kg, iv or po by LC-MS/MS analysis; type: ADME, organism-based; conditions: in vivo
# [26] = AUC (infinity) in Sprague-Dawley rat at 1 mg/kg, iv or po by LC-MS/MS analysis; type: ADME, organism-based; conditions: in vivo
# [27] = Oral bioavailability in Sprague-Dawley rat at 1 mg/kg by LC-MS/MS analysis; type: ADME, organism-based; conditions: in vivo
# [28] = Clearance in Sprague-Dawley rat at 1 mg/kg, iv by LC-MS/MS analysis; type: ADME, organism-based; conditions: in vivo
# [29] = Volume of distribution at steady state in Sprague-Dawley rat at 1 mg/kg, iv by LC-MS/MS analysis; type: ADME, organism-based; conditions: in vivo, read-out: Vdss
# [30] = Cmax in ddy mouse at 1 mg/kg, iv or po by LC-MS/MS analysis; type: ADME, organism-based; conditions: in vivo
# [31] = Tmax in ddy mouse at 1 mg/kg, iv or po by LC-MS/MS analysis; type: ADME, organism-based; conditions: in vivo
# [32] = Half life in ddy mouse at 1 mg/kg, iv or po by LC-MS/MS analysis; type: ADME, organism-based; conditions: in vivo
# [33] = AUC (infinity) in ddy mouse at 1 mg/kg, iv or po by LC-MS/MS analysis; type: ADME, organism-based; conditions: in vivo
# [34] = Oral bioavailability in ddy mouse at 1 mg/kg by LC-MS/MS analysis; type: ADME, organism-based; conditions: in vivo
# [35] = Clearance in ddy mouse at 1 mg/kg, iv by LC-MS/MS analysis; type: ADME, organism-based; conditions: in vivo
# [36] = Volume of distribution at steady state in ddy mouse at 1 mg/kg, iv by LC-MS/MS analysis; type: ADME, organism-based; conditions: in vivo, read-out: Vdss
# [37] = Cmax in ddy mouse at 3 mg/kg, iv or po by LC-MS/MS analysis; type: ADME, organism-based; conditions: in vivo
# [38] = Tmax in ddy mouse at 3 mg/kg, iv or po by LC-MS/MS analysis; type: ADME, organism-based; conditions: in vivo
# [39] = Half life in ddy mouse at 3 mg/kg, iv or po by LC-MS/MS analysis; type: ADME, organism-based; conditions: in vivo
# [40] = AUC (infinity) in ddy mouse at 3 mg/kg, iv or po by LC-MS/MS analysis; type: ADME, organism-based; conditions: in vivo
# [41] = Oral bioavailability in ddy mouse at 3 mg/kg by LC-MS/MS analysis; type: ADME, organism-based; conditions: in vivo
# [42] = Clearance in ddy mouse at 3 mg/kg, iv by LC-MS/MS analysis; type: ADME, organism-based; conditions: in vivo
# [43] = Volume of distribution at steady state in ddy mouse at 3 mg/kg, iv by LC-MS/MS analysis; type: ADME, organism-based; conditions: in vivo, read-out: Vdss
# [44] = Toxicity in Crl:CD1(ICR) mouse assessed as effect on spontaneous locomotor activity by measuring NOEL administered as single dose measured at 10 mins interval starting from 2 to 3 hrs; conditions: in vivo
# [45] = Toxicity in Crl:CD1(ICR) mouse assessed as effect on motor coordination by measuring NOEL administered as single dose measured after 0.5 to 2 hrs by rotarod test; conditions: in vivo
# [46] = Toxicity in Crl:CD1(ICR) mouse assessed as effect on respiratory system by measuring NOEL administered as single dose measured after 0.5 to 24 hrs by WBP method; conditions: in vivo
# [47] = Toxicity in cynomolgus monkey assessed as effect on cardiovascular system by measuring NOEL administered as single dose measured after 1 to 24 hrs by telemetry; parameters: species or system Macaca fascicularis; conditions: in vivo
# [48] = Chronic toxicity in male Crl:CD1(ICR) mouse assessed as NOAEL administered for 6 months; conditions: in vivo
# [49] = Chronic toxicity in female Crl:CD1(ICR) mouse assessed as NOAEL administered for 6 months; conditions: in vivo
# [50] = Chronic toxicity in male cynomolgus monkey assessed as NOAEL administered for 9 months; parameters: species or system Macaca fascicularis; conditions: in vivo
# [51] = Chronic toxicity in female cynomolgus monkey assessed as NOAEL administered for 9 months; parameters: species or system Macaca fascicularis; conditions: in vivo
# [52] = Cmax in male Crl:CD1(ICR) mouse at 1000 mg/kg administered for 6 months measured 24 hrs post last dose; type: ADME, organism-based; parameters: dose 1000 mg/kg; conditions: in vivo
# [53] = Cmax in female Crl:CD1(ICR) mouse at 1000 mg/kg administered for 6 months measured 24 hrs post last dose with 1 month recovery; type: ADME, organism-based; parameters: dose 1000 mg/kg; conditions: in vivo
# [54] = Cmax in male cynomolgus monkey at 1000 mg/kg administered for 9 months measured 24 hrs post last dose with 1 month recovery; type: ADME, organism-based, Macaca fascicularis; parameters: dose 1000 mg/kg; conditions: in vivo
# [55] = Cmax in female cynomolgus monkey at 1000 mg/kg administered for 9 months measured 24 hrs post last dose with 1 month recovery; type: ADME, organism-based, Macaca fascicularis; parameters: dose 1000 mg/kg; conditions: in vivo
# [56] = Tmax in male Crl:CD1(ICR) mouse at 1000 mg/kg administered for 6 months measured 24 hrs post last dose; type: ADME, organism-based; conditions: in vivo
# [57] = Tmax in female Crl:CD1(ICR) mouse at 1000 mg/kg administered for 6 months measured 24 hrs post last dose with 1 month recovery; type: ADME, organism-based; conditions: in vivo
# [58] = Tmax in male cynomolgus monkey at 1000 mg/kg administered for 9 months measured 24 hrs post last dose with 1 month recovery; type: ADME, organism-based, Macaca fascicularis; conditions: in vivo
# [59] = Tmax in female cynomolgus monkey at 1000 mg/kg administered for 9 months measured 24 hrs post last dose with 1 month recovery; type: ADME, organism-based, Macaca fascicularis; conditions: in vivo
# [60] = AUC (0 to 24 hrs) in male Crl:CD1(ICR) mouse at 1000 mg/kg administered for 6 months measured 24 hrs post last dose; type: ADME, organism-based; parameters: dose 1000 mg/kg, time < 24 hr; conditions: in vivo
# [61] = AUC (0 to 24 hrs) in female Crl:CD1(ICR) mouse at 1000 mg/kg administered for 6 months measured 24 hrs post last dose with 1 month recovery; type: ADME, organism-based; parameters: dose 1000 mg/kg, time < 24 hr; conditions: in vivo
# [62] = AUC (0 to 24 hrs) in male cynomolgus monkey at 1000 mg/kg administered for 9 months measured 24 hrs post last dose with 1 month recovery; type: ADME, organism-based, Macaca fascicularis; parameters: time < 24 hr, dose 1000 mg/kg; conditions: in vivo
# [63] = AUC (0 to 24 hrs) in female cynomolgus monkey at 1000 mg/kg administered for 9 months measured 24 hrs post last dose with 1 month recovery; type: ADME, organism-based, Macaca fascicularis; parameters: time < 24 hr, dose 1000 mg/kg; conditions: in vivo
structure (smiles),measurement,setting,value
Cn1nccc1[C@H]1CCCC[C@@H]1Oc1cc(F)c(S(=O)(=O)Nc2ccncn2)cc1Cl (racemic) [DS-1971],logD at 0.5 h,[1],0.8
same,solubility thermodynamic at 4 h,"[2]; pH 6.8, read-out: Therm_solubility",> 2000 µM
same,Stability,[3],70%
Cn1nccc1[C@H]1CCCC[C@@H]1Oc1cc(F)c(S(=O)(=O)Nc2ccncn2)cc1Cl [DS-1971],NOAEL at 24 h,[4],1000 mg/kg
same,Therm_solubility,"[2]; pH 6.8, 4 h, 4 h",1500 µM
same,Stability,[3],92%
same,remaining at 0.5 h,[5],94%
same,remaining at 0.5 h,[6],95%
same,remaining at 0.5 h,[7],78%
same,remaining at 0.5 h,[8],66%
same,Cmax,[9],1570 nM
same,Tmax,[10],0.83 h
same,half-life,[11],3.69 h
same,AUC(0-inf),[12],2.06 µM·h
same,bioavailability,[13],35%
same,clearance,[14],6.55 mL/min/kg
same,Vd,[15],0.15 L/kg
same,Cmax,[16],1710 nM
same,Tmax,[17],0.5 h
same,half-life,[18],4 h
same,AUC(0-inf),[19],3.23 µM·h
same,bioavailability,[20],77%
same,clearance,[21],8.7 mL/min/kg
same,Vd,[22],0.57 L/kg
same,Cmax,[23],103 nM
same,Tmax,[24],0.5 h
same,half-life,[25],0.77 h
same,AUC(0-inf),[26],0.103 µM·h
same,bioavailability,[27],16%
same,clearance,[28],47 mL/min/kg
same,Vd,[29],1.2 L/kg
same,Cmax,[30],105 nM
same,Tmax,[31],5 min
same,half-life,[32],2.02 h
same,AUC(0-inf),[33],0.0689 µM·h
same,bioavailability,[34],15%
same,clearance,[35],78.7 mL/min/kg
same,Vd,[36],1.37 L/kg
same,Cmax,[37],464 nM
same,Tmax,[38],0.25 h
same,half-life,[39],1.54 h
same,AUC(0-inf),[40],0.277 µM·h
same,bioavailability,[41],11%
same,clearance,[42],45.3 mL/min/kg
same,Vd,[43],0.565 L/kg
same,NOAEL,[44],1000 mg/kg
same,NOAEL,[45],1000 mg/kg
same,NOAEL,[46],1000 mg/kg
same,NOAEL,[47],1000 mg/kg
same,NOAEL at 6 months,[48],1000 mg/kg
same,NOAEL at 6 months,[49],1000 mg/kg
same,NOAEL at 9 months,[50],1000 mg/kg
same,NOAEL at 9 months,[51],1000 mg/kg
same,Cmax,[52],9440 nM
same,Cmax,[53],105000 nM
same,Cmax,[54],28100 nM
same,Cmax,[55],22500 nM
same,Tmax,[56],0.5 h
same,Tmax,[57],6 h
same,Tmax,[58],1.2 h
same,Tmax,[59],1.2 h
same,AUC(0-t) at 24 h,[60],65.9 µM·h
same,AUC(0-t) at 24 h,[61],1400 µM·h
same,AUC(0-t) at 24 h,[62],146 µM·h
same,AUC(0-t) at 24 h,[63],100 µM·h
